Publication PMC11530130, “Peripherally restricted PICK1 inhibitor mPD5 ameliorates pain behaviors in murine inflammatory and neuropathic pain models” (JCI Insight, 2024)

What was measured:
[1] = target: human serum albumin (HSA) (Homo sapiens, UniProt P02768); assay: FIDA binding to human serum albumin
Protocol: Flow-induced dispersion analysis (FIDA).
FIDA was carried out using a fluorescently labelled (AF488-NHS) mPD5 analogue, and
(100 nM), using the standard protocol recommended by the manufacturer, in short, mPD5 and
sample was injected into the capillary followed by a buffer injection. The diffusion of the
curve smoothing. Resulting hydrodynamic radius was plotted using GraphPad Prism 8.3.

[2] = system: mice, streptozocin (STZ) model of type 1 diabetes; assay: STZ model of diabetic neuropathy, von Frey; assay type: in vivo, mouse
Protocol: Induction of Diabetic neuropathy (STZ model).
Diabetes was induced by a single i.p. injection of […] streptozocin (STZ) solution (100 μL/10 g, Sigma-Aldrich S0130, batch #WXBB7152V) in male seven-week-old C57BL/6J (Charles River) mice. Glycemia was tested before, and seven days after injection. All injected mice had blood glucose concentration >350 mg/dL from day seven and were used for analgesic testing of the compounds from day 14. One mouse had to be euthanized at seven days post injection. This experiment was performed by Phenotype Expertise, Marseilles, France - Pain and CNS behaviour CRO under supervision of Stéphane Gaillard, PhD (CEO). […]
The skin wound was closed with two medical clips (Michel Suture Clips, 7.5x1.75 mm, Angthos, 12040-01). Post-surgical analgesia included s.c. injection of 5 mg/kg carprofen (Carprosan vet, 50 mg/mL mixed 1:25 in sterile ddH2O, Dechra, Le Vet Beheer B.V., Netherlands, Batch: 050520) right after surgery and the […]
following day. […]
The test battery of the CIBP model was carried out 45 or 90 min after morphine and mPD5 administration respectively to accommodate the peak efficacy […]
Mechanically evoked pain (von Frey test).
Unless otherwise specified, von Frey occurred as described in the following. Animals were habituated to the experimental room for a minimum of 60 min before initiation of the experiment. Mechanical paw withdrawal threshold (PWT) was determined by von Frey measurements of both hind paws. Von Frey filaments ranging from 0.04 to 2 g (g = gram- […]
Filaments in ascending order were applied to the frontocentral plantar surface of the hind paws.
Mice were placed in PVC plastic boxes (11.5 cm x 14 cm) on a wire mesh and allowed minimum 20 min habituation prior of experiment initiation. Each von Frey hair was applied five times with adequate resting periods between each application and number of withdrawals recorded. The withdrawal threshold was determined as the von Frey filament eliciting at least three positive trials out of the five applications in two consecutive filaments. A positive trial was defined as sudden paw withdrawal, flinching and/or paw licking induced by the filament.
For the CIBP model, two habituation sessions were performed on separated days with mice placed in the von Frey equipment for 1-1.5 hours in the presence of the experimenter on day one and random von Frey pocking with the 0.6 g filament on day two. Von Frey monofilaments (North Coast Touch Test, North Coast Medical, Inc.) with target forces of 0.04g, 0.07g, 0.16g, […]
down method” (PWT=10Xf+kδ) starting with the 0.6 g filament. Positive response was defined as; withdrawal, shaking or grooming of paw following a 2-3 second stimulation. In case, of unclear response, stimulus was repeated after 10-15 seconds.
For the STZ model, the mechanical threshold response of the injected mice was measured with […]
injection of test compounds on day 14, mechanical threshold was measured at 1 hour, 2 hours, 4 hours and 6 hours and again on day 15. […]
Thermally evoked pain (Hargreaves test).
A baseline Hargreaves test was performed on day 0 before inflammatory pain was induced as described in section 2.13. In the Hargreaves test, the mouse was placed in a container on a glass table and left to habituate for at least 15 min. Using the Hargreaves apparatus, a heat beam from beneath was directed towards the hind paws of the mouse, and the paw withdrawal time

PICK1 = PICK1 (Rattus norvegicus, UniProt Q9EP80); assay: Fluorescence polarization competition binding; design: Full length rat PICK1 (pET41) was, as described earlier (1), expressed in BL21-DE3-pLysS; made in house; host or cells: E. coli BL21-DE3-pLysS
Protocol: SUPPORTING INFORMATION: Method Section.
Sex as a biological variable.
All peptides were ordered from WuXI AppTec (Shanghai, China) or TAG-Copenhagen […]
Protein expression and purification.
Full length rat PICK1 (pET41) was, as described earlier (1), expressed in BL21-DE3-pLysS and grown at 37 °C, induced at OD600= 0.6 with 1 mM IPTG, and grown for 16 hours at 20 °C.
Cultures were harvested and re-suspended in 50 mM Tris, 125 mM NaCl, 2 mM DTT (Sigma), 1% Triton X-100 (Sigma), 20 µg/mL DNAse 1 and half a tablet of cOmplete protease inhibitor cocktail (Roche) pr. 1 L culture. The resuspended pellets were frozen at -80 °C for later purification. The lysate was cleared by centrifugation (36,000 x g for 30 min at 4 °C), and the supernatant was incubated with Glutathione-Sepharose 4B beads (GE Healthcare) for two hours at 4 °C under gentle rotation and then centrifuged at 4000 x g for 5 min. The supernatant was removed, and the beads were washed twice in 35 mL 50 mM Tris, 125 mM NaCl, 2 mM DTT, and 0.01% Triton-X100. The beads were transferred to PD-10 Bio-Spin® Chromatography columns (Bio-Rad) and washed with an additional 3 column volumes. Each column was sealed and 0.075 U/µL, Novagen® was added for cleavage O/N at 4 °C under gentle rotation. PICK1 was eluted on ice and concentration was measured on a NanoDrop 3000.
Fluorescence polarization binding.
The competition binding assay was carried out using a fixed concentration of PICK1 (0.5 µM) […]
binding surface 96 well plates (Sigma-Aldrich, Ref. no. 3686). The plates were incubated 20 min on ice and the fluorescence polarization was measured on an Omega POLARstar plate reader (BMG LABTECH) using excitation filter of 485 nm and long pass emission filter of 520 nm. The data was plotted and fitted to a competitive binding One Site fit using GraphPad […]
Superdex200 Increase 10/300.

Sequence of PICK1 (Q9EP80 whole entry): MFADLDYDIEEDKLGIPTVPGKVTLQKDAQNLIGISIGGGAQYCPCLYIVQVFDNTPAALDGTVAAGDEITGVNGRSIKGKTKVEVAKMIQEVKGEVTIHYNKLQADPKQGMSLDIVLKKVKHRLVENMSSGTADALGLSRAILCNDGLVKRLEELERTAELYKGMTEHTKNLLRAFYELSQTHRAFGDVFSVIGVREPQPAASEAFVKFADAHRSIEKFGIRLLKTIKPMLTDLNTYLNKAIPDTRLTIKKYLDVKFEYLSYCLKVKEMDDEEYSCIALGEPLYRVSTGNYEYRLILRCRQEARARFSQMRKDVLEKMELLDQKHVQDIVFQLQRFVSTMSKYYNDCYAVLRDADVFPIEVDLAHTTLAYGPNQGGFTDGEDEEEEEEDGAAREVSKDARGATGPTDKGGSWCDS
Sequence of human serum albumin (HSA) (P02768 25-609): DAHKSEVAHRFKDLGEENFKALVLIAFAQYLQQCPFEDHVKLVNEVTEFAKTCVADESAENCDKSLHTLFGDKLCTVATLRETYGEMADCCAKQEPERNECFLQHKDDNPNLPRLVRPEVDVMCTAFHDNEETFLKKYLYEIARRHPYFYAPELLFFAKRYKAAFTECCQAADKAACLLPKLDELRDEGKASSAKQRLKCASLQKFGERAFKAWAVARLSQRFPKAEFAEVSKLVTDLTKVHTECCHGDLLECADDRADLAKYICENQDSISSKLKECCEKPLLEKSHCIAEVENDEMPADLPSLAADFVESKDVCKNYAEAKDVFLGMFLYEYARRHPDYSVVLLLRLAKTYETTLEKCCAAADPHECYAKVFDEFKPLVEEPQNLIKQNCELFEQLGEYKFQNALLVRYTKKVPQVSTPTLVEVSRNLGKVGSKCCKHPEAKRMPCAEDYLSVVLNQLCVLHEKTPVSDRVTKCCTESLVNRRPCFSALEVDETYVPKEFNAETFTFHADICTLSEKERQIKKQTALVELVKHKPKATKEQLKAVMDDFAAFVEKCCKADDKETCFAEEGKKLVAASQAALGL

SMILES: CCCCCCCCCCCCCC(=O)N(CCOCCOCCC(=O)N[C@@H](Cc1c[nH]cn1)C(=O)N[C@@H](Cc1c[nH]c2ccccc12)C(=O)N[C@@H](CC(C)C)C(=O)N[C@@H](CCCCN)C(=O)N[C@H](C(=O)O)C(C)C)CCOCCOCCC(=O)N[C@@H](Cc1c[nH]cn1)C(=O)N[C@@H](Cc1c[nH]c2ccccc12)C(=O)N[C@@H](CC(C)C)C(=O)N[C@@H](CCCCN)C(=O)N[C@H](C(=O)O)C(C)C [mPD5, myristoyl-NPEG4-(HWLKV)2]
- HSA species bound, from RH [1]: binds to dimeric HSA
- paw withdrawal threshold, left paw, group mean ([2]; 2 umol/kg, +1h, n = 10): 0.44
- paw withdrawal threshold, left paw, group mean ([2]; 2 umol/kg, +2h, n = 10): 0.37
- paw withdrawal threshold, left paw, group mean ([2]; 2 umol/kg, +4h, n = 10): 0.37
- paw withdrawal threshold, left paw, group mean ([2]; 2 umol/kg, +6h, n = 10): 0.25
- paw withdrawal threshold, left paw, group mean ([2]; 2 umol/kg, D15, n = 10): 0.17
- paw withdrawal threshold, left paw, group mean ([2]; 10 umol/kg, +1h, n = 10): 0.58
- paw withdrawal threshold, left paw, group mean ([2]; 10 umol/kg, +2h, n = 10): 0.6
- paw withdrawal threshold, left paw, group mean ([2]; 10 umol/kg, +4h, n = 10): 0.38
- paw withdrawal threshold, left paw, group mean ([2]; 10 umol/kg, +6h, n = 10): 0.21
- paw withdrawal threshold, left paw, group mean ([2]; 10 umol/kg, D15, n = 10): 0.28
- extension of the effect at the highest dose ([2]; male mice, s.c. 10 μmol/kg): extended for another hour
- effect on mechanical hypersensitivity (PWT) ([2]; male mice, s.c. 2 and 10 μmol/kg, the first hour after injection): significant relief of mechanical hypersensitivity
- Ki (PICK1): 3 nM
- affinity gain compared with D5 (HWLKV) alone (PICK1; from Ki,app): approximately 1000 fold
- affinity gain compared with PD5 (PICK1; from Ki,app): 30 fold
